Experimental data reported in BigSolDB 2.1.

CC(=O)c1ccc(O)cc1O
solubility (mole fraction)
Conditions	in benzene	in ethanol	in ethyl acetate	in isobutanol	in isopropanol	in methanol	in methyl acetate	in n-butanol	in n-propanol	in n-propyl acetate
293.15 K	0.00045	0.118	0.118	0.0782	0.13	0.103	0.114	0.104	0.106	0.11
298.15 K	0.00055	0.131	0.129	0.091	0.144	0.117	0.126	0.118	0.118	0.12
303.15 K	0.00067	0.146	0.139	0.107	0.162	0.132	0.141	0.133	0.135	0.129
308.15 K	0.00082	0.162	0.152	0.122	0.178	0.148	0.155	0.153	0.151	0.143
313.15 K	0.00102	0.177	0.166	0.139	0.194	0.163	0.168	0.172	0.167	0.155
318.15 K	0.00125	0.195	0.18	0.156	0.211	0.183	0.182	0.191	0.18	0.171
323.15 K	0.0015	0.216	0.199	0.18	0.231	0.203	0.201	0.214	0.195	0.189
328.15 K	0.00178	0.235	0.216	0.199	0.25	0.228	0.212	0.233	0.216	0.205
333.15 K	0.00207	0.257	0.236	0.221	0.271	0.253	–	0.253	0.233	0.222
